According to US10941157B2, “Pesticidal compositions and uses thereof” (Gilead Apollo, LLC, priority 2015, dated 2021):
In brackets after ≈: the same amount, converted by molar mass.

Tests used:
Sphaerotheca fuliginea = assay: Foliar protection for cucumber powdery mildew control; assay type: in vivo; conditions: foliar spray on Cucumis sativus cv. Straight Eight, inoculated 24 hours after treatment, evaluated 7 days later
Method in brief: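 Cucumber plants (cv. Straight Eight, 10 days old) sprayed to wetness on both leaf surfaces, then inoculated 24 h later by shaking sporulating stock plants over them. Held at 23–27 °C, 16 h light, 60% RH. Mildew colonization scored 7 days after inoculation, at compound concentrations of 10 ppm or lower.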

[1] = tested on: Fusarium moniliforme (Fm); assay: In vitro pathogen growth inhibition assay, Fm; assay type: cell-based; conditions: Fusarium verticillioides; ≥90% growth inhibition; 48 hours; vs 2% DMSO control; read-out: Compound Concentration (ppm) sufficient for ≥90% inhibition of Fm
Method in brief: (§1)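 Spores in 17% V8 liquid medium, or 1.5 mm Rs mycelial plugs in ¼ PDB, incubated with compound; final concentration checked by OD600 for precipitation. OD readings at 24 and 48 h, blank-subtracted, plus visual ratings; value is concentration giving ≥90% growth inhibition.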

[2] = tested on: Phytophthora capsici (Pc); assay: In vitro pathogen growth inhibition assay, Pc; assay type: cell-based; conditions: 48 h, ≥90% growth inhibition, 48 hours, vs 2% DMSO control, read-out: Compound Concentration (ppm) sufficient for ≥90% inhibition of Pc
Method in brief: as §1

Fusarium graminearum = assay type: in vivo; conditions: spray on flowering Triticum aestivum cv. Samson, inoculated 24 hours after treatment, evaluated 14 days later
[3] = tested on: Fusarium virguliforme (Fv); assay: In vitro pathogen growth inhibition assay, Fv; assay type: cell-based; conditions: ≥90% growth inhibition, 48 hours, vs 2% DMSO control, read-out: Compound Concentration (ppm) sufficient for ≥90% inhibition of Fv
Method in brief: as §1

Rhizoctonia solani (Rs) = assay: In vitro pathogen growth inhibition assay, Rs (mycelial plugs); assay type: cell-based; conditions: Rhizoctonia solani, 48 h, ≥90% growth inhibition; mycelial plugs; 48 hours; vs 2% DMSO control; read-out: Compound Concentration (ppm) sufficient for ≥90% inhibition of Rs
Method in brief: as §1

Diplodia maydis (Dm) = assay: In vitro pathogen growth inhibition assay, Dm; assay type: cell-based; conditions: Stenocarpella maydis, 48 h, ≥90% growth inhibition; 48 hours; vs 2% DMSO control; read-out: Compound Concentration (ppm) sufficient for ≥90% inhibition of Dm
Method in brief: as §1

Puccinia triticina = assay: Foliar protection test for wheat leaf rust control; assay type: in vivo; conditions: foliar application to wheat (Triticum aestivum cv. Winterhawk), evaluated 10 days later
Phakopsora pachyrhizi = assay: Foliar protection test for Asian soybean rust control; assay type: in vivo; conditions: foliar application to soybean (Glycine max AG4832), percent disease area evaluated 14 days later
[4] = tested on: Collectotrichum graminicola (Cg); assay: In vitro pathogen growth inhibition assay, Cg; assay type: cell-based; conditions: 48 h, ≥90% growth inhibition; 48 hours; vs 2% DMSO control; read-out: Compound Concentration (ppm) sufficient for ≥90% inhibition of Cg
Method in brief: as §1

[5] = tested on: Mycosphaerella graminicola (synthetic Septoria tritici); assay: Foliar protection test for wheat septoria leaf blotch control; assay type: in vivo; conditions: foliar spray on Triticum aestivum cv. WinterHawk, inoculated 1 hour after treatment, evaluated 16 days later
[6] = tested on: Blumeria graminis f. sp. hordei; assay: Foliar protection test for barley powdery mildew control; assay type: in vivo; conditions: foliar spray on Hordeum vulgare cv. Perry, inoculated 24 hours after treatment, evaluated 7 days later
Method in brief: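 Six-day-old barley (cv. Perry) sprayed to wetness on both leaf sides; 24 h later inoculated by shaking spores from infected stock plants. Kept at 20 to 22° C, 70% relative humidity; mildew colonization assessed 7 days later.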

Botrtyis cinerea (Bc) = assay: In vitro pathogen growth inhibition assay, Bc; assay type: cell-based; conditions: 48 h, ≥90% growth inhibition; 48 hours; vs 2% DMSO control; read-out: Compound Concentration (ppm) sufficient for ≥90% inhibition of Bc
Method in brief: as §1

Septoria tritici (St) = assay: In vitro pathogen growth inhibition assay, St; assay type: cell-based; conditions: Zymoseptoria tritici, 48 h, ≥90% growth inhibition; 48 hours; vs 2% DMSO control; read-out: Compound Concentration (ppm) sufficient for ≥90% inhibition of St
Method in brief: as §1

SMILES	Cucumber Powdery Mildew Control at a compound concentration of 10 ppm or lower (Sphaerotheca fuliginea)	IC90 [1]	IC90 [2]	Wheat Fusarium Head Blight Control at a compound concentration of 25 ppm or lower (Fusarium graminearum)	IC90 [3]	IC90 (Rhizoctonia solani (Rs))	IC90 (Diplodia maydis (Dm))	Wheat Leaf Rust Control at a compound concentration of 10 ppm or lower (Puccinia triticina)	Asian Soybean Rust Control at a compound concentration of 25 ppm or lower (Phakopsora pachyrhizi)	IC90 [4]	Septoria Leaf Blotch Control at a compound concentration of 25 ppm or lower [5]	Barley Powdery Mildew Control at a compound concentration of 10 ppm or lower [6]	IC90 (Botrtyis cinerea (Bc))	IC90 (Septoria tritici (St))
CCOC(=O)c1sc2c(c1C)c(=O)n(C(C)(C)C(=O)NC(C)C)c(=O)n2C[C@H](OC[C@H](C)C#N)c1cc(F)ccc1OC [Compound I-259, (R)-ethyl-1-(2-((R)-2-cyanopropoxy)-2-(5-fluoro-2-methoxyphenyl)ethyl)-3-(1-(isopropylamino)-2-methyl-1-oxopropan-2-yl)-5-methyl-2,4-dioxo-1,2,3,4-tetrahydrothieno[2,3-d]pyrimidine-6-carboxylate]	AA (≥85% control of cucumber powdery mildew)	0.08 µg/mL (≈ 0.13 µM)	> 50 µg/mL	B (from 50 to 69% control of wheat fusarium head blight)	0.4 µg/mL (≈ 0.649 µM)	0.08 µg/mL (≈ 0.13 µM)	0.4 µg/mL (≈ 0.649 µM)	C (from 25 to 49% control of wheat leaf rust)	B (from 50 to 69% control of Asian soybean rust)	0.08 µg/mL (≈ 0.13 µM)	C (from 25 to 49% control of wheat septoria leaf blotch)	A (from 70% to 84% control of barley powdery mildew)	0.4 µg/mL (≈ 0.649 µM)	> 10 µg/mL
CCOC(=O)c1sc2c(c1C)c(=O)n([C@H](C)C(=O)N(C)C(C)C)c(=O)n2C[C@H](OCCC#N)c1cc(F)ccc1OC [Compound I-229, (R)-ethyl-1-(2-(2-cyanoethoxy)-2-(5-fluoro-2-methoxyphenyl)ethyl)-3-((R)-1-(isopropyl(methyl)amino)-1-oxopropan-2-yl)-5-methyl-2,4-dioxo-1,2,3,4-tetrahydrothieno[2,3-d]pyrimidine-6-carboxylate]	AA (≥85% control of cucumber powdery mildew)	0.08 µg/mL (≈ 0.133 µM)	> 50 µg/mL	C (from 25 to 49% control of wheat fusarium head blight)	0.4 µg/mL (≈ 0.664 µM)	2 µg/mL (≈ 3.32 µM)	2 µg/mL (≈ 3.32 µM)	B (from 50 to 69% control of wheat leaf rust)	C (from 25 to 49% control of Asian soybean rust)	2 µg/mL (≈ 3.32 µM)	D (<25% control of wheat septoria leaf blotch)	AA (≥85% control of barley powdery mildew)	2 µg/mL (≈ 3.32 µM)	> 50 µg/mL
COc1ccc(F)cc1[C@H](Cn1c(=O)n(C(C)(C)C(=O)NC(C)C)c(=O)c2c(C)c(-n3nccn3)sc21)OC[C@H](C)C#N [Compound I-212, 2-(1-((R)-2-((R)-2-cyanopropoxy)-2-(5-fluoro-2-methoxyphenyl)ethyl)-5-methyl-2,4-dioxo-6-(2H-1,2,3-triazol-2-yl)-1,4-dihydrothieno[2,3-d]pyrimidin-3 (2H)-yl)-N-isopropyl-2-methylpropanamide]	AA (≥85% control of cucumber powdery mildew)	0.08 µg/mL (≈ 0.131 µM)	> 50 µg/mL	B (from 50 to 69% control of wheat fusarium head blight)	0.4 µg/mL (≈ 0.654 µM)	0.08 µg/mL (≈ 0.131 µM)	≥ 0.08 µg/mL	AA (≥85% control of wheat leaf rust)	AA (≥85% control of Asian soybean rust)	0.08 µg/mL (≈ 0.131 µM)	AA (≥85% control of wheat septoria leaf blotch)	AA (≥85% control of barley powdery mildew)	0.4 µg/mL (≈ 0.654 µM)	> 50 µg/mL
CCNC(=O)C(C)(C)n1c(=O)c2c(C)c(-n3nccn3)sc2n(C[C@H](O)c2cc(F)ccc2OC)c1=O [Compound I-292, (R)—N-ethyl-2-(1-(2-(5-fluoro-2-methoxyphenyl)-2-hydroxyethyl)-5-methyl-2,4-dioxo-6-(2H-1,2,3-triazol-2-yl)-1,4-dihydrothieno[2,3-d]pyrimidin-3 (2H)-yl)-2-methylpropanamide]	AA (≥85% control of cucumber powdery mildew)	0.08 µg/mL (≈ 0.151 µM)	> 50 µg/mL	C (from 25 to 49% control of wheat fusarium head blight)	0.4 µg/mL (≈ 0.754 µM)	0.4 µg/mL (≈ 0.754 µM)	2 µg/mL (≈ 3.77 µM)	AA (≥85% control of wheat leaf rust)	B (from 50 to 69% control of Asian soybean rust)	2 µg/mL (≈ 3.77 µM)	B (from 50 to 69% control of wheat septoria leaf blotch)	AA (≥85% control of barley powdery mildew)	2 µg/mL (≈ 3.77 µM)	> 50 µg/mL
COc1ccc(F)cc1[C@@](C)(Cn1c(=O)n(C(C)(C)C(=O)NC(C)C)c(=O)c2c(C)c(-n3nccn3)sc21)OCCC#N [Compound I-274, (S)-2-(1-(2-(2-cyanoethoxy)-2-(5-fluoro-2-methoxyphenyl)propyl)-5-methyl-2,4-dioxo-6-(2H-1,2,3-triazol-2-yl)-1,4-dihydrothieno[2,3-d]pyrimidin-3 (2H)-yl)-N-isopropyl-2-methylpropanamide]	AA (≥85% control of cucumber powdery mildew)	0.08 µg/mL (≈ 0.131 µM)	2 µg/mL (≈ 3.27 µM)	C (from 25 to 49% control of wheat fusarium head blight)	0.4 µg/mL (≈ 0.654 µM)	0.08 µg/mL (≈ 0.131 µM)	0.4 µg/mL (≈ 0.654 µM)	AA (≥85% control of wheat leaf rust)	A (from 70% to 84% control of Asian soybean rust)	0.08 µg/mL (≈ 0.131 µM)	AA (≥85% control of wheat septoria leaf blotch)	AA (≥85% control of barley powdery mildew)	0.4 µg/mL (≈ 0.654 µM)	> 50 µg/mL
COCCO[C@@H](Cn1c(=O)n([C@H](C)C(=O)NC(C)C)c(=O)c2c(C)c(-n3nccn3)sc21)c1cc(F)ccc1OC [Compound I-171, (R)-2-(1-((R)-2-(5-fluoro-2-methoxyphenyl)-2-(2-methoxyethoxy)ethyl)-5-methyl-2,4-dioxo-6-(2H-1,2,3-triazol-2-yl)-1,4-dihydrothieno[2,3-d]pyrimidin-3 (2H)-yl)-N-isopropylpropanamide]	AA (≥85% control of cucumber powdery mildew)	0.08 µg/mL (≈ 0.136 µM)	≥ 10 µg/mL	C (from 25 to 49% control of wheat fusarium head blight)	≥ 0.4 µg/mL	0.08 µg/mL (≈ 0.136 µM)	0.08 µg/mL (≈ 0.136 µM)	B (from 50 to 69% control of wheat leaf rust)	A (from 70% to 84% control of Asian soybean rust)	0.08 µg/mL (≈ 0.136 µM)	AA (≥85% control of wheat septoria leaf blotch)	AA (≥85% control of barley powdery mildew)	0.08 µg/mL (≈ 0.136 µM)	≥ 2 µg/mL
